For data set [1], the system named is primary rat cortical neurons. In words: Cytotoxicity test on primary rat cortical neurons. Particulars: wild-type primary rat cortical neurons.
The next data set deals with Httexon1CAG93 flies. In words: Pseudopupil assay, Httexon1CAG93 flies. The data set is classed as in vivo, Drosophila. Particulars: Htt disease model, 1 day-old adults. How it is done: (§1) For pseudopupil assay, flies were raised at 21.5° C. on cornmeal medium supplemented with dry yeast. For climbing ability assay, lifespan analysis as well as external eye assay, flies were raised at 25° C. on cornmeal medium supplemented with dry yeast. We usually feed flies at larval stage unless otherwise indicated. For larval stage treatment, third instar larvae were fed with different concentration of TAT-P3L dissolved in 2% sucrose solution for 2 h and then continued to culture in standard fly food. For adult stage treatment, 5 or 10 day-old adult flies were starved for 8 h and then fed with different concentrations of TAT-P3L dissolved in 2% sucrose solution overnight. After treatment, flies were cultured in standard fly food.
(§2) Pseudopupil assay^18 was performed on 12 day-old adult flies except for Httexon1CAG93 which 1 day-old adult flies were used for the assay. Images were captured by SPOT Insight CCD camera controlled by the SPOT Advanced software (Diagnostic instruments Inc.). External eye assay was performed on 1 day-old adult of CTG480 flies and 2 day-old adult of CGG90 flies using an Olympus SZX-12 stereomicroscope. […] Fly climbing ability was analyzed by negative geotaxis. […] After 1 h recovery, flies were banged to the bottom, and then scored for climbing ability as the percentage of flies remaining at the bottom (<2 cm) at 25s. […]

For another data set, the system named is CGG90 flies. In words: External eye assay, CGG90 flies (Fragile X syndrome). The data set is classed as in vivo, Drosophila. As to the method: as §1, §2
The subject of data set [2] is pre-45s rRNA in EGFPCAG78 RNA expressing-HEK293 cells. Nature of the data set: pre-45s rRNA expression by real-time PCR in EGFPCAG78 RNA-expressing HEK293 cells. The data set is classed as cell-based, Human. The conditions noted are these: expanded CAG-repeat RNA-expressing HEK293 cells. How it is done: (§3) RNA was extracted from cells by Trizol reagent (Life Technologies), and 1 μg of purified RNA was then used for reverse-transcription using the ImPromII™ Reverse Transcription System (Promega). Random hexamer (Roche) was used as primers in reverse transcription. Taqman gene expression assays were performed on an ABI 7500 Real-time PCR system and data were analyzed as previously described^10. The following probes were used: pre-45s rRNA (Assay ID: AILJIZM), actin (Assay ID: Hs99999903_m1), pre-rRNA (Assay ID: AIMSG5U) and GAPDH for Drosophila (Assay ID: Dm01841186).
For orientation: Real-time PCR tracks product formation cycle by cycle.

The next data set deals with CTG480 flies. In words: External eye assay, CTG480 flies (Myotonic dystrophy 1). The data set is classed as in vivo, Drosophila. As to the method:
as §1, §2

A further data set deals with DsRedCAG100 flies. In words: Pseudopupil assay, DsRedCAG100 flies. The data set is classed as in vivo, Drosophila. As to the method:
as §1, §2

For data set [3], the system named is DsRedCAG250 flies. In words: Lifespan analysis, DsRedCAG250 flies. The data set is classed as in vivo, Drosophila. As to the method:
as §1, §2

The subject of data set [4] is MJDCAG78-expressing HEK293 cells. Nature of the data set: LDH cytotoxicity assay, MJD disease cell model. The data set is classed as cell-based, Human. Particulars: MJDCAG78-expressing HEK293, CAG-repeat RNA and polyQ protein. As to the method:
(§4) Human embryonic kidney 293 cells were seeded on a 24-well plate at a density of 0.5×10^5, and pcDNA3.1-MJDCAG27/78 or, pEGFPCAG78 or, pcDNA3.1-SCA2CAG22/72/104 or pEGFP-trHttCAG23/73/145 construct was used to transfect the cells. Lactate dehydrogenase enzyme activity in the cell culture medium was measured 72 h post-transfection and drugs treatment using the Cytotox 96 non-radioactive cytotoxicity assay (Promega).

The subject of data set [5] is SCA2CAG72/104-expressing HEK293 cells. Nature of the data set: LDH cytotoxicity assay, SCA2 disease cell model. The data set is classed as cell-based, Human. Particulars: SCA2CAG72/104-expressing HEK293, CAG-repeat RNA and polyQ protein. How it is done: as §4
Data set [6] concerns pre-rRNA in DsRedCAG100 flies. Nature of the data set: pre-rRNA expression by real-time PCR in DsRedCAG100 flies. Particulars: DsRedCAG100 Drosophila model, RNA toxicity only. The data set is classed as in vivo. How it is done: as §3, §1
Data set [7] deals with DsRedCAG250 flies. Nature of the data set: Climbing ability assay, DsRedCAG250 flies. The data set is classed as in vivo, Drosophila. As to the method:
as §1, §2

Data set [8] deals with trHttCAG72/145-expressing HEK293 cells. In words: LDH cytotoxicity assay, Htt disease cell model. The data set is classed as cell-based, Human. The conditions noted are these: trHttCAG72/145-expressing HEK293, CAG-repeat RNA and polyQ protein. How it is done:
as §4

The subject of data set [9] is EGFPCAG78-expressing HEK293 cells. Nature of the data set: LDH cytotoxicity assay, EGFPCAG78 (only RNA toxicity). The data set is classed as cell-based, Human. As to the method: as §4
The subject of a further data set is flMJDCAG84 flies. In words: Pseudopupil assay, flMJDCAG84 flies. The conditions noted are these: MJD disease model. The data set is classed as in vivo, Drosophila. How it is done: as §1, §2

Molecules are shown by their SMILES. Peptide text beside a SMILES is read from it.

Broadly, the IC50 is the concentration at which inhibition is half-maximal.

Take `CC[C@H](C)[C@H](NC(=O)CNC(=O)[C@H](CCCCN)NC(=O)[C@H](CO)NC(=O)[C@H](CCCCN)NC(=O)CNC(=O)[C@H](CC(=O)O)NC(=O)[C@H](CCCCN)NC(=O)[C@H](CO)NC(=O)[C@@H](NC(=O)[C@H](CC(C)C)NC(=O)[C@H](CCCNC(=N)N)NC(=O)[C@@H](NC(=O)[C@H](CCC(=O)O)NC(=O)[C@H](C)N)[C@@H](C)CC)C(C)C)C(=O)N[C@@H](C)C(=O)N[C@@H](Cc1ccc(O)cc1)C(=O)N[C@H](C(=O)N[C@@H](CCC(=O)O)C(=O)N[C@@H](Cc1ccccc1)C(=O)N[C@@H](CCCCN)C(=O)O)[C@@H](C)CC` [P3L] (H-AEIRLVSKDGKSKGIAYIEFK-OH): the “concentration with no observed cytotoxicity (viability not compromised)” value in data set [1] is “up to 25 μM”.
Regarding `CC[C@H](C)[C@H](NC(=O)CNC(=O)[C@H](CCCCN)NC(=O)[C@H](CO)NC(=O)[C@H](CCCCN)NC(=O)CNC(=O)[C@H](CC(=O)O)NC(=O)[C@H](CCCCN)NC(=O)[C@H](CO)NC(=O)[C@@H](NC(=O)[C@H](CC(C)C)NC(=O)[C@H](CCCNC(=N)N)NC(=O)[C@@H](NC(=O)[C@H](CCC(=O)O)NC(=O)[C@H](C)NC(=O)[C@H](CCCNC(=N)N)NC(=O)[C@H](CCCNC(=N)N)NC(=O)[C@H](CCCNC(=N)N)NC(=O)[C@H](CCC(N)=O)NC(=O)[C@H](CCCNC(=N)N)NC(=O)[C@H](CCCNC(=N)N)NC(=O)[C@H](CCCCN)NC(=O)[C@H](CCCCN)NC(=O)[C@H](CCCNC(=N)N)NC(=O)CNC(=O)[C@@H](N)Cc1ccc(O)cc1)[C@@H](C)CC)C(C)C)C(=O)N[C@@H](C)C(=O)N[C@@H](Cc1ccc(O)cc1)C(=O)N[C@H](C(=O)N[C@@H](CCC(=O)O)C(=O)N[C@@H](Cc1ccccc1)C(=O)N[C@@H](CCCCN)C(=O)O)[C@@H](C)CC` [TAT-P3L] (H-YGRKKRRQRRRAEIRLVSKDGKSKGIAYIEFK-OH), the “suppression of retinal degeneration (pseudopupil assay)” value in the data set on Httexon1CAG93 flies and in the data set with flMJDCAG84 flies was “suppressed retinal degeneration” in each case. The “effect on degenerative phenotype (specificity)” value in the data set with CGG90 flies and in the data set on CTG480 flies was “did not mitigate the phenotypes” throughout. For the same compound, the “pre-45s rRNA transcription level” value in data set [2] is listed as “restore the pre-45s rRNA transcription level”. Moreover, the “suppression of neurodegeneration compared with TAT-P3” value with DsRedCAG100 flies (50 uM concentration) is “suppressed neurodegeneration more effectively than TAT-P3”. Further, the “inhibition of neurodegeneration (retinal degeneration, pseudopupil assay)” value with DsRedCAG100 flies (larval feeding, 12 day-old adults) is “concentration-dependent inhibition of neurodegeneration”. For the same compound, in [1], the “concentration with no observed cytotoxicity (viability not compromised)” value was “up to 25 μM”. The lifespan result in the data set with DsRedCAG250 flies [3] was “extended the lifespan”. Also, the “suppression of cell death” value in data set [4], in data set [5] and in data set [8] was “concentration-dependent suppression in cell death” in each case. Further, in [6], the pre-rRNA expression level result is recorded as “restore pre-rRNA expression level”. The climbing ability result is “ameliorated the climbing ability” in the data set with DsRedCAG250 flies [7] (larval treatment, 5, 10 and 15 day-old adult DsRedCAG250 flies); “dose-dependent improvement of the climbing ability” with DsRedCAG250 flies [7] (late adult stage treatment, DsRedCAG250 flies already showing degeneration). Besides, the “suppression of EGFPCAG78 RNA-induced cell death” value in [9] (LDH enzyme activity, 72 h post-transfection and treatment) was “significantly suppressed”. Further, the IC50 in data set [9] (concentration that reduced LDH enzyme activity by 50% vs untreated control, EGFPCAG78 HEK293, read-out: IC50 in inhibiting expanded CAG-repeat RNA-induced cell death) stood at 700 nM.

Values taken from patent publication US11639371B2, “Peptidylic inhibitors of nucleolin (NCL) targeting CAG-repeat RNA toxicity and methods for reducing polyQ-mediated toxicity in polyQ diseases” (The Chinese University of Hong Kong, priority 2016, dated 2023).
